From paper PMC4287680, “Targeting GLP-1 receptors for repeated magnetic resonance imaging differentiates graded losses of pancreatic beta cells in mice” (Diabetologia, 2014)

Tested on: pancreas of RIP-DTr mice
Test: Total pancreas insulin content (acid-ethanol extraction, ELISA) after DT
Format: in vivo
Excerpt: Rat insulin promoter-diphtheria toxin receptor (RIP-DTr) mice were generated as reported. Briefly, the transgene containing an insulin promoter and the diphtheria toxin (DT) receptor coding sequence (RIP-DTr) was targeted to the Hprt locus of the X chromosome. Thus, in this model, DT administration leads to a parallel loss of insulin content and beta cells, which is partially due to the random X inactivation (on average 50%) in hemizygous female mice and nearly complete ablation in male mice.
To evaluate the total insulin content of the pancreas, whole glands were carefully dissected and extracted in acid-ethanol for 24 h, as reported. Pancreas insulin content was evaluated using a rodent insulin ELISA kit (Mercodia, Uppsala, Sweden) according to the manufacturer’s instructions.
Three-to-four-months-old male and female mice of the RIP-DTr strain [33, 36] were tested before and after DT administration. Mice were initially imaged before the injection of a probe to obtain a baseline T2 value (ESM Fig. 2). […] One week after this first imaging session, the same mice were given three intraperitoneal injections of 125 ng DT (injections administered on days 7, 9 and 11; ESM Fig. 2) and were monitored for non-fasting blood glucose by measuring tail-vein blood samples with a glucose meter. […]

Diphtheria toxin [DT]
Pancreas insulin content after DT, female mice (average) (female RIP-DTr mice, up to 3 months after DT administration (3 × 125 ng i.p.)): 63 % of the control levels | Pancreas insulin content after DT, male mice (male RIP-DTr mice after DT administration (3 × 125 ng i.p.)): 0.4 % of control levels
